Patent publication US11000033B2, “Ketone or oxime compound, and herbicide” (NISSAN CHEMICAL CORPORATION, priority 2014, dated 2021)

Legend:
Assay type in all cases: in vivo
[1] = tested on: Echinochloa oryzacola Vasing.; assay: Test Example 1: herbicidal activity, application before weed generation in submerged conditions (symbol A); details: application herbicide amount 320 g/ha
Outline: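 Application before weed emergence: an aqueous dilution of the emulsion formulation was poured onto the surface of 4 cm-deep floodwater on the day of sowing. Effect was judged after 3 weeks (greenhouse, 25–30 °C).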

Cyperus difformis = assay: Test Example 3: herbicidal effect by foliage application, Wagner pot (symbol E); details: application herbicide amount 320 g/ha
Outline: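 Post-emergence, paddy-type test: seedlings 14 d old in shallow-flooded (0.1–0.5 cm) alluvial soil, 25–30 °C greenhouse. Emulsion diluted to target rate, sprayed on leaves. Read-out: visual effect on each species at 3 weeks, per set criteria.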

Setaria viridis [2] = assay: Test Example 4: herbicidal effect by soil treatment (symbol G)
Outline: (§1)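 Seeds were sown in sterilized diluvial soil, covered with about 1.5 cm of soil, and the soil surface was sprayed with a water-diluted emulsion of the compound at a predetermined rate. Plants grew in a greenhouse at 25° C. to 30° C.; effects were scored visually 3 weeks after application.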

Alopecurus myosuroides [3] = assay: Test Example 4: herbicidal effect by soil treatment (symbol J)
Outline: as §1

Lolium multiflorum Lam. [4] = assay: Test Example 4: herbicidal effect by soil treatment (symbol K)
Outline: as §1

Galium spurium = assay: Test Example 4: herbicidal effect by soil treatment (symbol Q)
Outline: as §1

Veronica persica [5] = assay: Test Example 4: herbicidal effect by soil treatment (symbol R)
Outline: as §1

corn = assay: Test Example 4: effect on crop by soil treatment (symbol c); details: for c: corn, effect grade on crop: 320 g/ha
Outline: (§2)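 Plants are raised in a greenhouse (25° C. to 30° C.) from spot-sown seed, which sits under about 1.5 cm of sterilized diluvial soil in a box shared with weed species.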

soybean [6] = assay: Test Example 4: effect on crop by soil treatment (symbol d); details: for d: soybean, effect grade on crop: 320 g/ha
Outline: as §2

rice = assay: Test Example 4: effect on crop by soil treatment (symbol b); details: for b: directly sowed rice plant, effect grade on crop: 320 g/ha
Outline: as §2

wheat = assay: Test Example 4: effect on crop by soil treatment (symbol e); details: for e: wheat, effect grade on crop: 320 g/ha
Outline: as §2

Setaria viridis [7] = assay: Test Example 5: herbicidal effect by foliage application, plastic box (symbol G); details: 320 g/ha, 3 weeks after application
Outline: (§3)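 Herbicide, formulated as an emulsion and diluted in water, is sprayed onto the aerial parts of 14-day seedlings. These were grown at 25° C. to 30° C. in sterilized diluvial soil; effects are graded after 3 weeks.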

Avena fatua = assay: Test Example 5: herbicidal effect by foliage application, plastic box (symbol I); details: 320 g/ha, 3 weeks after application
Outline: as §3

Alopecurus myosuroides [8] = assay: Test Example 5: herbicidal effect by foliage application, plastic box (symbol J); details: 320 g/ha, 3 weeks after application
Outline: as §3

Lolium multiflorum Lam. [9] = assay: Test Example 5: herbicidal effect by foliage application, plastic box (symbol K); details: 320 g/ha, 3 weeks after application
Outline: as §3

Amaranthus retroflexus = assay: Test Example 5: herbicidal effect by foliage application, plastic box (symbol N); details: 320 g/ha, 3 weeks after application
Outline: as §3

Veronica persica [10] = assay: Test Example 5: herbicidal effect by foliage application, plastic box (symbol R); details: 320 g/ha, 3 weeks after application
Outline: as §3

soybean [11] = assay: Test Example 5: effect on crop by foliage application, plastic box (symbol d); details: 320 g/ha, 3 weeks after application
Outline: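 Box culture: sterile diluvial soil, seeds spot-sown, ~1.5 cm cover, raised under glass at 25–30° C.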

[12] = application herbicide amount 320 g/ha

SMILES	Herbicidal effect grade, A: Echinochloa oryzacola Vasing. [1]	G: Setaria viridis, herbicidal effect grade (Setaria viridis [2]; 320 g/ha)	J: Alopecurus myosuroides, herbicidal effect grade (Alopecurus myosuroides [3]; 320 g/ha)	K: Lolium multiflorum Lam., herbicidal effect grade (Lolium multiflorum Lam. [4]; 320 g/ha)	Q: Galium spurium, herbicidal effect grade (Galium spurium; 320 g/ha)	R: Veronica persica, herbicidal effect grade (Veronica persica [5]; 320 g/ha)	c: corn, effect grade on crop (corn)	d: soybean, effect grade on crop (soybean [6])	b: directly sowed rice plant, effect grade on crop (rice)	e: wheat, effect grade on crop (wheat)	G: Setaria viridis, herbicidal effect (criteria 0-5) (Setaria viridis [7])	I: Avena fatua, herbicidal effect (criteria 0-5) (Avena fatua)	J: Alopecurus myosuroides, herbicidal effect (criteria 0-5) (Alopecurus myosuroides [8])	K: Lolium multiflorum Lam., herbicidal effect (criteria 0-5) (Lolium multiflorum Lam. [9])	N: Amaranthus retroflexus, herbicidal effect (criteria 0-5) (Amaranthus retroflexus)	R: Veronica persica, herbicidal effect (criteria 0-5) (Veronica persica [10])	d: soybean, effect on crop (criteria 0-5) (soybean [11])	other results
CON=C(CC1CC(O)=C(c2c(C)cc(C)cc2OC)C1=O)C1CC1 (mixture of isomers) [13-002]																		A (Echinochloa oryzacola Vasing.) herbicidal effect grade [1]: 5 (Herbicidal ratio of 90% or more (almost completely withered)); E herbicidal effect grade (Cyperus difformis; Table 24): 5 (Herbicidal ratio of 90% or more (almost completely withered)); G: Setaria viridis, herbicidal effect grade (Setaria viridis [2]; [12]): 5 (Herbicidal ratio of 90% or more (almost completely withered)); J: Alopecurus myosuroides, herbicidal effect grade (Alopecurus myosuroides [3]; [12]): 4 (Herbicidal ratio of 70% or higher and lower than 90%); K: Lolium multiflorum Lam., herbicidal effect grade (Lolium multiflorum Lam. [4]; [12]): 5 (Herbicidal ratio of 90% or more (almost completely withered)); Q: Galium spurium, herbicidal effect grade (Galium spurium; [12]): 0 (Herbicidal ratio of 5% or lower (almost no effect)); R: Veronica persica, herbicidal effect grade (Veronica persica [5]; [12]): 0 (Herbicidal ratio of 5% or lower (almost no effect)); c: corn, effect on crop grade (corn; [12]): 5 (Herbicidal ratio of 90% or more (almost completely withered)); d: soybean, effect on crop grade (soybean [6]; [12]): 1 (Herbicidal ratio of 5% or higher and lower than 20%); b: directly sowed rice plant, effect on crop grade (rice; [12]): 5 (Herbicidal ratio of 90% or more (almost completely withered)); e: wheat, effect on crop grade (wheat; [12]): 3 (Herbicidal ratio of 40% or higher and lower than 70%); G: Setaria viridis, herbicidal effect grade (Setaria viridis [7]): 5 (Herbicidal ratio of 90% or more (almost completely withered)); I: Avena fatua, herbicidal effect grade (Avena fatua): 5 (Herbicidal ratio of 90% or more (almost completely withered)); J: Alopecurus myosuroides, herbicidal effect grade (Alopecurus myosuroides [8]): 5 (Herbicidal ratio of 90% or more (almost completely withered)); K: Lolium multiflorum Lam., herbicidal effect grade (Lolium multiflorum Lam. [9]): 5 (Herbicidal ratio of 90% or more (almost completely withered)); N: Amaranthus retroflexus, herbicidal effect grade (Amaranthus retroflexus): 0 (Herbicidal ratio of 5% or lower (almost no effect)); R: Veronica persica, herbicidal effect grade (Veronica persica [10]): 4 (Herbicidal ratio of 70% or higher and lower than 90%); d: soybean, effect on crop grade (soybean [11]): 2 (Herbicidal ratio of 20% or higher and lower than 40%)
CON=C(C)CC1CC(OC(=O)CSc2ccccc2)=C(c2c(C)cc(C)cc2C)C1=O (stereo not shown) [1-134]	5 (Herbicidal ratio of 90% or more (almost completely withered))	5 (Herbicidal ratio of 90% or more (almost completely withered))	5 (Herbicidal ratio of 90% or more (almost completely withered))	5 (Herbicidal ratio of 90% or more (almost completely withered))	0 (Herbicidal ratio of 5% or lower (almost no effect))	0 (Herbicidal ratio of 5% or lower (almost no effect))	5 (Herbicidal ratio of 90% or more (almost completely withered))	0 (Herbicidal ratio of 5% or lower (almost no effect))	5 (Herbicidal ratio of 90% or more (almost completely withered))	2 (Herbicidal ratio of 20% or higher and lower than 40%)	5 (Herbicidal ratio of 90% or more (almost completely withered))	5 (Herbicidal ratio of 90% or more (almost completely withered))	5 (Herbicidal ratio of 90% or more (almost completely withered))	5 (Herbicidal ratio of 90% or more (almost completely withered))	1 (Herbicidal ratio of 5% or higher and lower than 20%)	1 (Herbicidal ratio of 5% or higher and lower than 20%)	2 (Herbicidal ratio of 20% or higher and lower than 40%)	herbicidal effect on E, grade 0-5 (Cyperus difformis): 5 (Herbicidal ratio of 90% or more (almost completely withered))
CC(CC1CC(O)=C(c2c(C)cc(C)cc2C)C1=O)=NOCC(C)Br (stereo not shown) [1-135]	5 (Herbicidal ratio of 90% or more (almost completely withered))	5 (Herbicidal ratio of 90% or more (almost completely withered))	5 (Herbicidal ratio of 90% or more (almost completely withered))	5 (Herbicidal ratio of 90% or more (almost completely withered))	0 (Herbicidal ratio of 5% or lower (almost no effect))	2 (Herbicidal ratio of 20% or higher and lower than 40%)	0 (Herbicidal ratio of 5% or lower (almost no effect))	0 (Herbicidal ratio of 5% or lower (almost no effect))	5 (Herbicidal ratio of 90% or more (almost completely withered))	0 (Herbicidal ratio of 5% or lower (almost no effect))	5 (Herbicidal ratio of 90% or more (almost completely withered))	5 (Herbicidal ratio of 90% or more (almost completely withered))	5 (Herbicidal ratio of 90% or more (almost completely withered))	5 (Herbicidal ratio of 90% or more (almost completely withered))	0 (Herbicidal ratio of 5% or lower (almost no effect))	3 (Herbicidal ratio of 40% or higher and lower than 70%)	1 (Herbicidal ratio of 5% or higher and lower than 20%)	
CC(CC1CC(O)=C(c2c(C)cc(C)cc2C)C1=O)=NOCc1ccc(C(F)(F)F)cc1 (stereo not shown) [1-138]	5 (Herbicidal ratio of 90% or more (almost completely withered))	4 (Herbicidal ratio of 70% or higher and lower than 90%)	5 (Herbicidal ratio of 90% or more (almost completely withered))	5 (Herbicidal ratio of 90% or more (almost completely withered))	0 (Herbicidal ratio of 5% or lower (almost no effect))	0 (Herbicidal ratio of 5% or lower (almost no effect))	0 (Herbicidal ratio of 5% or lower (almost no effect))	0 (Herbicidal ratio of 5% or lower (almost no effect))	5 (Herbicidal ratio of 90% or more (almost completely withered))	0 (Herbicidal ratio of 5% or lower (almost no effect))	5 (Herbicidal ratio of 90% or more (almost completely withered))	5 (Herbicidal ratio of 90% or more (almost completely withered))	5 (Herbicidal ratio of 90% or more (almost completely withered))	5 (Herbicidal ratio of 90% or more (almost completely withered))	0 (Herbicidal ratio of 5% or lower (almost no effect))	3 (Herbicidal ratio of 40% or higher and lower than 70%)	0 (Herbicidal ratio of 5% or lower (almost no effect))	
